Experimental data reported in ChEMBL document CHEMBL5465560, “Selectivity Literature for EUbOPEN Chemogenomic Library” (2024).

Key:
[1] = biological target: T1, Serine/threonine-protein kinase TAO3 (Homo sapiens) (UniProt Q9H2K8); assay: Selectivity interaction (KinomeScan (DiscoverX)) EUB0000229b TAOK3; conditions: at 10 µM
T1 sequence (whole entry): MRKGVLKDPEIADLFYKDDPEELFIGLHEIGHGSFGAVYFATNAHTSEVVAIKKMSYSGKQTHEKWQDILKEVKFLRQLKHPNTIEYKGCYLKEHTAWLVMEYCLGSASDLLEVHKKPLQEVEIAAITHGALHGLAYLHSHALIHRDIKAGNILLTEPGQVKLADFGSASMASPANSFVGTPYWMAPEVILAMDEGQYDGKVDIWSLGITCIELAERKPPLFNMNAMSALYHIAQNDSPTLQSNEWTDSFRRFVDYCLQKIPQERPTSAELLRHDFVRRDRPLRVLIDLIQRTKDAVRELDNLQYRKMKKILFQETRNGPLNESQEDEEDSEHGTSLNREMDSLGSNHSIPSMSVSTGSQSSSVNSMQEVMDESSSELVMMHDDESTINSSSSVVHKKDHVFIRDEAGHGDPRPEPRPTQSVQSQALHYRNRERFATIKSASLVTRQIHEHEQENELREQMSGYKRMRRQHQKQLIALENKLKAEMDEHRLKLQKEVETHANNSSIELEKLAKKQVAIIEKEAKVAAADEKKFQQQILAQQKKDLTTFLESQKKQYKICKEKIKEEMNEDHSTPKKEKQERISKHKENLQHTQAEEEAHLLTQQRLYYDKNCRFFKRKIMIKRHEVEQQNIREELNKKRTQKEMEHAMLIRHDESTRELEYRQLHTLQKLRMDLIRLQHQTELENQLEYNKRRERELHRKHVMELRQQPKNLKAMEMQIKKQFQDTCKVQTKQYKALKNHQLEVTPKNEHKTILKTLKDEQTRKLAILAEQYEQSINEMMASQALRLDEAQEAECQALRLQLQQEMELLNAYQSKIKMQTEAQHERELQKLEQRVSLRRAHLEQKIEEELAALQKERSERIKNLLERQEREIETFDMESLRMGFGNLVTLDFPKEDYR

[2] = biological target: Homeodomain-interacting protein kinase 3 (Homo sapiens, UniProt Q9H422); assay: Selectivity interaction (KinomeScan (DiscoverX)) EUB0000045b HIPK3
Homeodomain-interacting protein kinase 3, sequence (Q9H422 whole entry, looked up): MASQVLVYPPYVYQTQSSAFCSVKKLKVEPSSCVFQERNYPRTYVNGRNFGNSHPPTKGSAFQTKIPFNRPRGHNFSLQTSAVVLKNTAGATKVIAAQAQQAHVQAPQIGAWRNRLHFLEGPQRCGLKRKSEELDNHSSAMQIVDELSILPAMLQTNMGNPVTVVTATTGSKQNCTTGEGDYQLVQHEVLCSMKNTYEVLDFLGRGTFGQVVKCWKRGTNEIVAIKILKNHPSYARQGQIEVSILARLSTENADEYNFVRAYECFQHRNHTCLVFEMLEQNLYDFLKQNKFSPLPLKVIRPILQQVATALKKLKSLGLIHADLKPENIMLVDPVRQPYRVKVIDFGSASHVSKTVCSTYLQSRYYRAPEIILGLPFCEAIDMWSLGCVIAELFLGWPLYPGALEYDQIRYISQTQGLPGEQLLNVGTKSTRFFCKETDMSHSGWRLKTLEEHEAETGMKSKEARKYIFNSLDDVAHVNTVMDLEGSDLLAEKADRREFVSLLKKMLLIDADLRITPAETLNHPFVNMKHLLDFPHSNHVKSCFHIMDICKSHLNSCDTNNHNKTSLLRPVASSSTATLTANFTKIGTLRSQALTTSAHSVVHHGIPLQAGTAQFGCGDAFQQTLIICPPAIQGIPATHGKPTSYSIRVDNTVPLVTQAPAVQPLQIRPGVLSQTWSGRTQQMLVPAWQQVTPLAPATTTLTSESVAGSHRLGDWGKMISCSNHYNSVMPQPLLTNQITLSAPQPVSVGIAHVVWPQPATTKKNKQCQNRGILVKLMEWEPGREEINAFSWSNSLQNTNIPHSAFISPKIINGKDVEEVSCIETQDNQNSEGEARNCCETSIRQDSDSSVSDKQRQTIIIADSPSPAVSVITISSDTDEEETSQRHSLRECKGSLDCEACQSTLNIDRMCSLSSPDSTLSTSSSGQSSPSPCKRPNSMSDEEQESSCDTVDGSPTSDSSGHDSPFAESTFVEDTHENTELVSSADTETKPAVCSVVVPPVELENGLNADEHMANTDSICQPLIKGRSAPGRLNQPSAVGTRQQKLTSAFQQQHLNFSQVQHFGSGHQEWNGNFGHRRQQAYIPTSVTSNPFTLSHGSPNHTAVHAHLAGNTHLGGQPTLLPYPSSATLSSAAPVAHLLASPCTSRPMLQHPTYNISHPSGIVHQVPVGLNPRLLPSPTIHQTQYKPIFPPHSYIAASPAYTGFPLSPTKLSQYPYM

[3] = biological target: NT-3 growth factor receptor (Homo sapiens, UniProt Q16288); assay: Selectivity interaction (KinomeScan (DiscoverX)) EUB0000666a NTRK3; conditions: at 10 µM
NT-3 growth factor receptor, sequence (Q16288 32-839 limits assumed): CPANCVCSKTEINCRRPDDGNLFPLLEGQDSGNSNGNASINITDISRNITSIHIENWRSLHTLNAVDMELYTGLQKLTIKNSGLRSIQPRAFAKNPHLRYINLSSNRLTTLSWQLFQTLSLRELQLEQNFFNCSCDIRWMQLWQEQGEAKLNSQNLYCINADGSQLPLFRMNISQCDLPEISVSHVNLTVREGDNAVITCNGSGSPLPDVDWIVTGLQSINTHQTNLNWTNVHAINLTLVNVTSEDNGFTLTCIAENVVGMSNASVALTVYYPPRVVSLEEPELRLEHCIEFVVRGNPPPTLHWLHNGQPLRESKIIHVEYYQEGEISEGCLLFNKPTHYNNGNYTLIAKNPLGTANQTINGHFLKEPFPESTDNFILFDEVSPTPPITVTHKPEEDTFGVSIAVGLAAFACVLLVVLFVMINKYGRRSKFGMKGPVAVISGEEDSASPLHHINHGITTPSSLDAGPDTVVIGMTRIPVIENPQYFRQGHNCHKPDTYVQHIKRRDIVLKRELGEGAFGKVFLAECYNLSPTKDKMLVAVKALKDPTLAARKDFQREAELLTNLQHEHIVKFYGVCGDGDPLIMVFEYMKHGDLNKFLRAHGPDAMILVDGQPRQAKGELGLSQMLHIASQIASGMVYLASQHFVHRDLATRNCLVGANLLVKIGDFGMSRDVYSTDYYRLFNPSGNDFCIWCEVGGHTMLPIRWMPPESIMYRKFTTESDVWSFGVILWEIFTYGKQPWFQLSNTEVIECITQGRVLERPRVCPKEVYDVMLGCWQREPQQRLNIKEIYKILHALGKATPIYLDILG

[4] = biological target: T2, Aurora kinase C (Homo sapiens) (UniProt Q9UQB9); conditions: at 10 µM
T2 sequence (whole entry): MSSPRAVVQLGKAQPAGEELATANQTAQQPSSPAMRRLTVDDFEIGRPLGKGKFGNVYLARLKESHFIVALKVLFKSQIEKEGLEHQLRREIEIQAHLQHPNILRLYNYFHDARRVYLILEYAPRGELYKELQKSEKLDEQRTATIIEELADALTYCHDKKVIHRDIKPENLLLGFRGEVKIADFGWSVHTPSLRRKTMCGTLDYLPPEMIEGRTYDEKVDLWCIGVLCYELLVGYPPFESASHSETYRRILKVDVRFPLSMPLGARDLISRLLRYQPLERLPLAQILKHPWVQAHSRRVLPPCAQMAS

[5] = biological target: Proto-oncogene tyrosine-protein kinase Src (Homo sapiens, UniProt P12931); assay: Selectivity interaction (KinomeScan (DiscoverX)) EUB0001049a SRC; conditions: at 1 µM
Proto-oncogene tyrosine-protein kinase Src, sequence (P12931 2-536 limits assumed): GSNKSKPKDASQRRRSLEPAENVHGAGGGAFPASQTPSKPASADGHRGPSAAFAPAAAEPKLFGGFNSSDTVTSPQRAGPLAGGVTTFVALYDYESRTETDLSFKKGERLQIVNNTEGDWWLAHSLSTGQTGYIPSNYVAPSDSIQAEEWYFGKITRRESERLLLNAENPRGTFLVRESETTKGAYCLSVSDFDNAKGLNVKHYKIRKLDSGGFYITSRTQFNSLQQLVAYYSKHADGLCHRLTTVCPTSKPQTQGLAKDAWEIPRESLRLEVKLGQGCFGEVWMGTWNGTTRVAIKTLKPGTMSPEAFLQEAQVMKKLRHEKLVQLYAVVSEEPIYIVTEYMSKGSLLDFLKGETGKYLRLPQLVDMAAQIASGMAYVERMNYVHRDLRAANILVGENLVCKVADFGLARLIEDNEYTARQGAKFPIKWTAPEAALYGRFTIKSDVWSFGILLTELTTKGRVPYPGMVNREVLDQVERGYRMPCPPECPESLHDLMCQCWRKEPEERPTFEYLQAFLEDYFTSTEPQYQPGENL

[6] = biological target: Ribosomal protein S6 kinase alpha-6 (Homo sapiens, UniProt Q9UK32); assay: Selectivity interaction (KinomeScan (DiscoverX)) EUB0001049a RPS6KA6; conditions: at 1 µM
Ribosomal protein S6 kinase alpha-6, sequence (Q9UK32 whole entry): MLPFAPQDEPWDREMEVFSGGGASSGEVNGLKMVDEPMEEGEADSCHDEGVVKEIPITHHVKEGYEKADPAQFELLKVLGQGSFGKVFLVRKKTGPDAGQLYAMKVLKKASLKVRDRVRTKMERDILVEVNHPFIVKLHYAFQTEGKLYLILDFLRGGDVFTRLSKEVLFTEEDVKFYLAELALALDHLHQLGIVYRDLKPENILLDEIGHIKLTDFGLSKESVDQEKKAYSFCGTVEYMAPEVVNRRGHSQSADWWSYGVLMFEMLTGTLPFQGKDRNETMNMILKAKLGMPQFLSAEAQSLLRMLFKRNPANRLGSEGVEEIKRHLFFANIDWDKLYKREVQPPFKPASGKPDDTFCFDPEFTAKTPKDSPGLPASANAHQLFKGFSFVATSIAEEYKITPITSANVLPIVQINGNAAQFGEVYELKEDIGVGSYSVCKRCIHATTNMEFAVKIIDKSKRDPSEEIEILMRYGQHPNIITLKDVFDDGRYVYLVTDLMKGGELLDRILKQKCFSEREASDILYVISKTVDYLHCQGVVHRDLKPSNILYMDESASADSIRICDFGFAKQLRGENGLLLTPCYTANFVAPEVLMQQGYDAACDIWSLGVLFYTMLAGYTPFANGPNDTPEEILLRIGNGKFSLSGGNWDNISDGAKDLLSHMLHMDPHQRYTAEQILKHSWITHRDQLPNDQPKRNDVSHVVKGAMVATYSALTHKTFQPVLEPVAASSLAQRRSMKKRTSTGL

[7] = biological target: MAP kinase-activated protein kinase 2 (Homo sapiens, UniProt P49137); assay: Selectivity interaction (KinomeScan (DiscoverX)) EUB0001619a MAPKAPK2; conditions: at 1 µM
MAP kinase-activated protein kinase 2, sequence (P49137 whole entry, looked up): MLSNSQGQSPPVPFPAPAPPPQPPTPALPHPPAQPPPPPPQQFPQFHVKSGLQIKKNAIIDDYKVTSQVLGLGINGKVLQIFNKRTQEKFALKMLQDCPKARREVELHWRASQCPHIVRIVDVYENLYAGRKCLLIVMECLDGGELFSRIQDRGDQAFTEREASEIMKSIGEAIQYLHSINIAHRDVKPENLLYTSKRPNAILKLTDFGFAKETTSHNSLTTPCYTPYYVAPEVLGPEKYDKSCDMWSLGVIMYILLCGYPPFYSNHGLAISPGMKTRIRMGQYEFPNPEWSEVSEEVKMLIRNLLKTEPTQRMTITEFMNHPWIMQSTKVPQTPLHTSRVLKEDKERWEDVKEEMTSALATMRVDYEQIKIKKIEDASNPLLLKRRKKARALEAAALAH

[8] = biological target: Myosin light chain kinase 2, skeletal/cardiac muscle (Homo sapiens) (UniProt Q9H1R3); assay: Selectivity interaction (KinomeScan (DiscoverX)) EUB0001619a MYLK2; conditions: at 1 µM
Myosin light chain kinase 2, skeletal/cardiac muscle (Homo sapiens), sequence (Q9H1R3 whole entry): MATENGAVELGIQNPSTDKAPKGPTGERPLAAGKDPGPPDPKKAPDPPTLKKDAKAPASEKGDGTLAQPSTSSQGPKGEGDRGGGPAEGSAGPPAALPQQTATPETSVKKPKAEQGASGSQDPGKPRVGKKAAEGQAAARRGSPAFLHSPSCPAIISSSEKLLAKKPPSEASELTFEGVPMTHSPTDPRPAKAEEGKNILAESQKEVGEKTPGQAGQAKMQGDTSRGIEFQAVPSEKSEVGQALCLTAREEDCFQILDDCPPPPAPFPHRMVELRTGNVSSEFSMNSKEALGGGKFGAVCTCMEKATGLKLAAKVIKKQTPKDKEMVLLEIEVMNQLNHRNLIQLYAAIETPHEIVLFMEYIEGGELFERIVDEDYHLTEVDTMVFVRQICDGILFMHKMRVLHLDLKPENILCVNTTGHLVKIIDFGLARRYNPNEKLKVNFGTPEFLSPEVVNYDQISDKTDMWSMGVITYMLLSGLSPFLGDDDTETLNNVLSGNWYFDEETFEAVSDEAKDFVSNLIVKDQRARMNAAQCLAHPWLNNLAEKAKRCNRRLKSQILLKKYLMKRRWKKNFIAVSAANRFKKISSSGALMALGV

[9] = biological target: T3, Tyrosine-protein kinase Mer (Homo sapiens) (UniProt Q12866); assay: Selectivity interaction (SelectScreen profiling (Invitrogen)) EUB0000607a MERTK; conditions: at 2 µM
T3 sequence (whole entry): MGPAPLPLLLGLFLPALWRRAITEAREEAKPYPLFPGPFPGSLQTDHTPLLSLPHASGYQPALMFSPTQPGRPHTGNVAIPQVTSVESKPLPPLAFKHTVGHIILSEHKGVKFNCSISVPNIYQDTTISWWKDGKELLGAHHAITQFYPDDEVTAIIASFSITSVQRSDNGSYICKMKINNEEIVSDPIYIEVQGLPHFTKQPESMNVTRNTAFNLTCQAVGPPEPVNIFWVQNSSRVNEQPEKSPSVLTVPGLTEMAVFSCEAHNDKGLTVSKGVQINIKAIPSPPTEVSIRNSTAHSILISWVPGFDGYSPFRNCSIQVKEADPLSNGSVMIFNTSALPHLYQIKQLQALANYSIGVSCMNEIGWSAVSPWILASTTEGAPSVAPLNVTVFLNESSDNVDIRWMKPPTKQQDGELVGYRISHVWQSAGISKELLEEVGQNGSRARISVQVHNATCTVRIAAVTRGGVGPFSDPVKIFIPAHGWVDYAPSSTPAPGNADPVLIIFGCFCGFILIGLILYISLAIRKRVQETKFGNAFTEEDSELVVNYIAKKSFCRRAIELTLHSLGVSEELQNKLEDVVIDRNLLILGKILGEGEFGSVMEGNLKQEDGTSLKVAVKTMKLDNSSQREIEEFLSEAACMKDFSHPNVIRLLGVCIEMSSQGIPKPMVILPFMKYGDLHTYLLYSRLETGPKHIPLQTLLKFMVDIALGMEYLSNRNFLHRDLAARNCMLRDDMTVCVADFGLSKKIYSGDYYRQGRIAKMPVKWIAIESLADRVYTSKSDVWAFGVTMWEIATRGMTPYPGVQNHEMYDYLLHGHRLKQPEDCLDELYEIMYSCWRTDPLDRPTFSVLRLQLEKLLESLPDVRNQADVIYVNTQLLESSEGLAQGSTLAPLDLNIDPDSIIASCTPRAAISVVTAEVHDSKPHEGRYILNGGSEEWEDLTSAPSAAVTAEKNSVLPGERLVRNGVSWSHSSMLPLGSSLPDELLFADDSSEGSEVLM

[10] = biological target: Tyrosine-protein kinase SYK (Homo sapiens, UniProt P43405); assay: Selectivity interaction (ActivX KiNativ screen (kinase selectivity in THP-1 cell lysates)) EUB0000639a SYK; format: subcellular; conditions: lysate, at 0.04 µM

Structure (SMILES): COc1cc(N(C)c2ccnc3ccc(C(F)(F)F)cc23)cc(OC)c1OC
- % binding [1]: 80%

Structure (SMILES): C=CC(=O)Nc1cc(-n2c(=O)ccc3cnc4ccc(-c5ccc(NS(C)(=O)=O)cc5)cc4c32)ccc1C
- % of control ([2]; at 1 µM): 100%
- % of control ([2]; at 10 µM): 100%

Structure (SMILES): O=C(NOC[C@H](O)CO)c1ccc(F)c(F)c1Nc1ccc(I)cc1F
- % of control [3]: 93%

Structure (SMILES): Cc1cc([C@@H](C)Nc2ccccc2C(=O)O)c2nc(N3CCOCC3)cc(=O)n2c1 [AZD-6482]
- % of control [4]: 93%

Structure (SMILES): COc1cc(Nc2nc(C)cc(-c3cnn4nc(OC)ccc34)n2)cc(C(F)(F)F)c1
- % of control [5]: 100%
- % of control [6]: 70%

Structure (SMILES): N#Cc1cccc(-c2c[nH]c3ncnc(N4CCOCC4)c23)c1
- % of control [7]: 100%
- % of control [8]: 92%

Structure (SMILES): CNC(=O)Nc1ccc(-c2nc(N3CC4CCC(C3)O4)c3cnn(C4CCC5(CC4)OCCO5)c3n2)cc1
- % of inhibition [9]: 1%

Structure (SMILES): CC[C@@H]1[C@H](F)C(=O)N[C@@H]1COc1nccc2cc(C(N)=O)c(OC)cc12 [ZIMLOVISERTIB]
- % of inhibition [10]: 5.5%
